# Results as given in patent publication US11839607B2, “Memantine paroxetine cocrystal salt and its preparation method, pharmaceutical composition and application” (priority 2018, dated 2023).
# Like-named read-outs stand apart in the source and are kept apart here.
# Test: Pharmacokinetic experiment of memantine paroxetine cocrystal salt in rats (plasma memantine by LC-MS/MS)
# Assay type: in vivo, SD rat
# Settings: gavage
# Description: Determination of the pharmacokinetic parameters of […] and paroxetine in rat plasma by LC-MS/MS method
# The memantine paroxetine cocrystal salt prepared in embodiment 1; memantine hydrochloride; dexamethasone (Intermediate inspection office); ammonium formate; methanol is all chromatographic pure (Merck Company); formic acid is all chromatographic pure (Aladdin Company); acetonitrile is all chromatographic pure (Merck Company); experimental water is deionized purified water.
# SD rat, SPF grade, male, weight 200-250 g, purchased from Zhejiang Experimental Animal Center, production license No.: SCXK (Zhejiang) 2014-0001.
# Liquid mass spectrometer: Thermo Finnigan TSQ Quantum, composed of Surveyor As, Surveyor MS Pump Plus and TSQ Quantum, Thermo Fisher Scientific Company; Sartorius BP-211D electronic balance; Thermo STRATOS high speed freezing centrifuge; Eppendorf PCB-11 micro vortex mixer; Milli-Q Grandient pure water meter.
# Chromatographic column: Waters Cortecs C18 (2.1 mm×50 mm, 2.7 μm); column temperature: 35° C.; mobile phase: acetonitrile-[…] ammonium formate containing 0.1% formic acid (10:90); flow rate: 0.2 mL·min^−1; sample injection volume: 5 μL.
# Ion detection method: multiple reaction monitoring (MRM); ionic polarity: positive ion (Positive); ionization mode: electrospray ionization (ESI); ionization voltage (IS): 3000.0V; temperature: 300° C.; sheath gas: 35; auxiliary gas: 30.
# 10 rats are randomly divided into 2 groups, 5 rats in each group: group A: 5.6 mg/kg memantine hydrochloride; group B: 17.4 mg/kg cocrystal salt;
# The rats are fasted for 12 h before the experiment, and the tested drugs re given by gavage with the volume of 1 mL/100 g. Before and 5, 10, 20, 40, 60, 120, 180, 240, 360 and 480 min after administration, 0.5 mL of blood is collected through the fundus vein plexus. Anticoagulate the heparin. Centrifugate at 4000 rpm for 10 min, and separate the plasma. It can be used for the determination of memantine concentration.
# [1] = male SD rats, same molar dose: group A 5.6 mg/kg memantine hydrochloride, group B 17.4 mg/kg cocrystal salt, average value
SMILES,AUC(0-t) [1] [ng·h/mL],AUC(0-∞) [1] [ng·h/mL],CLz/F [1] [mL/min/kg],Cmax [1] [ng/mL],MRT(0-t) [1] [h],MRT(0-∞) [1] [h],T1/2z [1] [h],Tmax [1] [h],"AUC(0-∞) ratio, cocrystal salt versus memantine hydrochloride (same molar dose, rats) [times]","Cmax ratio, cocrystal salt versus memantine hydrochloride (same molar dose, rats) [times]","T1/2 ratio, cocrystal salt versus memantine hydrochloride (same molar dose, rats) [times]","Tmax ratio, cocrystal salt versus memantine hydrochloride (same molar dose, rats) [times]","AUC(0-inf) (Sprague-Dawley (SD), rat, po, male SD rats, same molar dose: group A 5.6 mg/kg memantine hydrochloride, group B 17.4 mg/kg cocrystal salt, average value) [ng·h/mL]","AUC(0-t) (Sprague-Dawley (SD), rat, po, male SD rats, same molar dose: group A 5.6 mg/kg memantine hydrochloride, group B 17.4 mg/kg cocrystal salt, average value, read-out: AUC(0-t)) [ng·h/mL]","Cmax (Sprague-Dawley (SD), rat, po, male SD rats, same molar dose: group A 5.6 mg/kg memantine hydrochloride, group B 17.4 mg/kg cocrystal salt, average value, read-out: Cmax) [ng/mL]","MRT last (Sprague-Dawley (SD), rat, po, male SD rats, same molar dose: group A 5.6 mg/kg memantine hydrochloride, group B 17.4 mg/kg cocrystal salt, average value, read-out: MRT(0-t)) [h]","MRT inf (Sprague-Dawley (SD), rat, po, male SD rats, same molar dose: group A 5.6 mg/kg memantine hydrochloride, group B 17.4 mg/kg cocrystal salt, average value, read-out: MRT(0-∞)) [h]","Tmax (Sprague-Dawley (SD), rat, po, male SD rats, same molar dose: group A 5.6 mg/kg memantine hydrochloride, group B 17.4 mg/kg cocrystal salt, average value, read-out: Tmax) [h]"
"CC12CC3CC(C)(C1)CC(N)(C3)C2.Fc1ccc([C@@H]2CCNC[C@H]2COc2ccc3c(c2)OCO3)cc1.O.O.O.O=S(=O)(O)O [cocrystal salt, C19H20FNO3·C12H21N·H2SO4·3H2O]",1.982124,3.16723,94414.6,0.449186,3.298,8.1,5.605,0.868,4.10,1.62,2.79,1.41,–,–,–,–,–,–
"CC12CC3CC(C)(C1)CC(N)(C3)C2.Cl [memantine hydrochloride, 3,5-Dimethyl-1-aminoadamantane hydrochloride, reference compound]",–,–,123437.1,–,–,–,2.009,–,–,–,–,–,0.773,0.714,0.276,2.43,3.05,0.617
